From patent US20250214969A1, “PROTEIN DEGRADERS AND USES THEREOF” (Kymera Therapeutics, Inc., priority 2022, published 2025) come the findings set out here.

The structures appear in SMILES notation.

Assay [1] concerns the target T1, truncated His-MBP-Tev-KLHDC2 (residues 1-363) (Homo sapiens, UniProt Q9Y2U9).
T1 construct: truncated His -MBP-Tev-KLHDC2 (residues 1-363) purified from E. coli; made in house; host or cells: E. coli
T1 sequence (Q9Y2U9 1-363): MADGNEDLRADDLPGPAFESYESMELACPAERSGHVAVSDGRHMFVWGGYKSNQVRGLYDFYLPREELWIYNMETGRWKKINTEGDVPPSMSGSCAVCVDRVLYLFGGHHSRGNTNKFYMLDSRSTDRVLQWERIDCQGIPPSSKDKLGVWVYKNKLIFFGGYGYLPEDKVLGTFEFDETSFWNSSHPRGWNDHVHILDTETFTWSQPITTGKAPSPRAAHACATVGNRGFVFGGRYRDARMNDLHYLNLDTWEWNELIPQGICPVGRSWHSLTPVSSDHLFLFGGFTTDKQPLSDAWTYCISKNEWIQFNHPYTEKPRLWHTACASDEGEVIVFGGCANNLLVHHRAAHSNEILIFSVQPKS
Nature of the assay: KLHDC2 FP competition binding assay. The settings on record: 15 nM KLHDC2 (residues 1-363), 10 nM fluorescein-labeled diglycine peptide probe, read-out: KLHDC2 binding Human FP: average external IC50.

The target of assay [2] is T1, truncated His-MBP-Tev-KLHDC2 (residues 1-363). The experiment in a line: KLHDC2 HTRF binding assay. The following applies: 1 nM KLHDC2 (residues 1-363), fluorescein-labeled diglycine peptide probe.
Protocol: HTRF binding assays were performed using 1 nM truncated His -MBP-Tev-KLHDC2 (residues 1-363) purified from E. coli, 0.2 nM terbium-anti-His antibody (CisBio), 1 nM fluorescein-labeled diglycine peptide probe, and test compounds in assay buffer consisting of 50 mM HEPES-Na pH 7.5, 100 mM NaCl, 2 mM DTT, 0.005% Tween-20 with a final volume of 20 uL. Compound stocks were dissolved at 10 mM in 100% DMSO and 11 point titration with 3 fold serial dilution was performed in white, opaque 384 well microplates. Reaction plates were incubated at room temperature for 30 minutes. Plates were centrifuged at low rpm for 5 mins, and the ratio of fluorescence intensities were measured at emission wavelengths for fluorescein acceptor (520 nm) and terbium donor (495 nm) on Envision Plate reader. % Inhibition was calculated from the 520/495 ratio generated by the no protein controls for 100% inhibition and DMSO only reactions for 0l % inhibition.

Turning to `O=C(O)Cn1cc(NC(=O)COc2ccc(C(F)(F)F)cc2)ccc1=O` [I-256], the IC50 in assay [1] and in assay [2] was > 5 µM each time.

With `O=C(O)Cn1cc(NC(=O)COc2cc(Cl)cc(Cl)c2)ccc1=O` [I-257], the IC50 in assay [1] and in assay [2] was > 5 µM throughout.

Turning to `N#Cc1cccc(OCC(=O)Nc2ccc(=O)n(CC(=O)O)c2)c1` [I-258], the half-inhibitory concentration (IC50) in assay [1] and in assay [2] was > 5 µM throughout.

Consider `COc1c(C(=O)Nc2ccc(=O)n(CC(=O)O)c2)cccc1-c1ccccc1` [I-259], for which the IC50 was > 5 µM in assay [1] and 0.5 to 5 µM in assay [2].

In the case of `O=C(O)Cn1cc(NC(=O)c2ccnc(-c3ccccc3)c2)ccc1=O` [I-260], the IC50 in assay [1] and in assay [2] was > 5 µM in each case.

On to `COc1cccc(OCC(=O)Nc2ccc(=O)n(CC(=O)O)c2)c1` [I-261], for which the IC50 in assay [1] and in assay [2] was > 5 µM each time.

With `COc1cc(C(=O)Nc2ccc(=O)n(CC(=O)O)c2)cc(-c2ccccc2)c1` [I-262], the IC50 in assay [1] and in assay [2] was > 5 µM throughout.

As to `O=C(O)Cn1cc(NC(=O)COc2cccc3ncccc23)ccc1=O` [I-263], the IC50 in assay [1] and in assay [2] was > 5 µM in each case.

With `O=C(O)Cn1cc(NC(=O)COc2ccccn2)ccc1=O` [I-264], the IC50 in assay [1] and in assay [2] was > 5 µM in each case.

As to `O=C(O)Cn1cc(NC(=O)COc2cccc(Cl)c2)ccc1=O` [I-265], the IC50 in assay [1] and in assay [2] was > 5 µM throughout.

For the compound `Cc1ccccc1OCC(=O)Nc1ccc(=O)n(CC(=O)O)c1` [I-266], the IC50 in assay [1] and in assay [2] was > 5 µM throughout.

As to `O=C(O)Cn1cc(NC(=O)c2cc(-c3ccccc3)ccn2)ccc1=O` [I-267], the IC50 in assay [1] and in assay [2] was > 5 µM in each case.

`O=C(O)Cn1cc(NC(=O)c2cccc(Br)c2)ccc1=O` [I-268]: the IC50 in assay [1] and in assay [2] was > 5 µM each time.

For the compound `Cc1ccc(C(=O)Nc2ccc(=O)n(CC(=O)O)c2)cc1-c1ccccc1` [I-269], the IC50 in assay [1] is > 5 µM; in assay [2] it was 0.5 to 5 µM.

Turning to `N#Cc1ccc(OCC(=O)Nc2ccc(=O)n(CC(=O)O)c2)cc1` [I-270], the IC50 in assay [1] and in assay [2] was > 5 µM in each case.

With `O=C(O)CN1CC(NC(=O)c2ccccc2)CCC1=O` (stereo not shown) [I-271], the IC50 in assay [1] and in assay [2] was > 5 µM throughout.

Turning to `CN(C(=O)Cc1ccc(=O)n(CC(=O)O)c1)c1ccccc1` [I-272], the IC50 in assay [1] and in assay [2] was > 5 µM each time.

As to `COc1ccccc1OCC(=O)Nc1ccc(=O)n(CC(=O)O)c1` [I-273], the IC50 in assay [1] and in assay [2] was > 5 µM throughout.

`O=C(O)Cn1cc(NC(=O)c2cccc(-c3ccccc3)n2)ccc1=O` [I-274]: the IC50 in assay [1] and in assay [2] was > 5 µM each time.

`Cc1ccc(-c2cccc(C(=O)Nc3ccc(=O)n(CC(=O)O)c3)c2)cc1` [I-275]: the IC50 was > 5 µM in assay [1] and 0.5 to 5 µM in assay [2].

In the case of `O=C(O)Cn1cc(NC(=O)c2cccc(-c3ccc(F)cc3)c2)ccc1=O` [I-276], the IC50 is > 5 µM in assay [1] and 0.5 to 5 µM in assay [2].

For the compound `O=C(O)Cn1cc(CC(=O)N2CCc3ccccc32)ccc1=O` [I-277], the IC50 in assay [1] and in assay [2] was > 5 µM each time.

`O=C(O)Cn1cc(NC(=O)COc2ccc(Cl)cc2)ccc1=O` [I-278]: the IC50 in assay [1] and in assay [2] was > 5 µM each time.

Consider `O=C(O)Cn1cc(NC(=O)COc2ccccc2F)ccc1=O` [I-279], for which the IC50 in assay [1] and in assay [2] was > 5 µM throughout.

With `O=C(O)Cn1cc(NC(=O)c2cccc(-c3ccncc3)c2)ccc1=O` [I-280], the IC50 in assay [1] and in assay [2] was > 5 µM in each case.

Consider `O=C(O)Cn1cc(NC(=O)c2cccc(-c3cccnc3)c2)ccc1=O` [I-281], for which the half-inhibitory concentration (IC50) in assay [1] and in assay [2] was 0.5 to 5 µM in each case.

Consider `O=C(O)Cn1cc(NC(=O)COc2ccccc2Cl)ccc1=O` [I-282], for which the IC50 in assay [1] and in assay [2] was > 5 µM each time.

`O=C(O)Cn1cc(NC(=O)COc2ccc(F)cc2)ccc1=O` [I-283]: the IC50 in assay [1] and in assay [2] was > 5 µM in each case.

Consider `CN(C)C(=O)Cc1ccc(=O)n(CC(=O)O)c1` [I-284], for which the IC50 in assay [1] and in assay [2] was > 5 µM throughout.

With `O=C(O)Cn1cc(-c2cncc(CCc3ccccc3)c2)ccc1=O` [I-285], the IC50 in assay [1] and in assay [2] was > 5 µM throughout.

With `CN(C(=O)c1ccccc1)c1ccc(=O)n(CC(=O)O)c1` [I-286], the IC50 in assay [1] and in assay [2] was > 5 µM in each case.

With `O=C(O)Cn1cc(-c2cncc(/C=C/c3ccccc3)c2)ccc1=O` [I-287], the IC50 in assay [1] and in assay [2] was > 5 µM each time.

On to `O=C(O)Cn1cc(NC(=O)c2cccc(-c3ccccc3F)c2)ccc1=O` [I-288], for which the IC50 in assay [1] and in assay [2] was > 5 µM throughout.

As to `Cc1ccccc1-c1cccc(C(=O)Nc2ccc(=O)n(CC(=O)O)c2)c1` [I-289], the IC50 in assay [1] and in assay [2] was > 5 µM each time.

With `O=C(O)Cn1cc(CC(=O)N2CCCCC2)ccc1=O` [I-290], the IC50 in assay [1] and in assay [2] was > 5 µM throughout.

For the compound `O=C(O)Cn1cc(-c2cccc(CO)c2)ccc1=O` [I-291], the IC50 in assay [1] and in assay [2] was > 5 µM throughout.

In the case of `COc1cccc(-c2cccc(C(=O)Nc3ccc(=O)n(CC(=O)O)c3)c2)c1` [I-292], the IC50 in assay [1] and in assay [2] was > 5 µM in each case.

Regarding `O=C(O)Cn1cc(NC(=O)c2cccc(-c3cccc(Cl)c3)c2)ccc1=O` [I-293], the IC50 is > 5 µM in assay [1] and 0.5 to 5 µM in assay [2].

Regarding `Cc1cccc(-c2cccc(C(=O)Nc3ccc(=O)n(CC(=O)O)c3)c2)c1` [I-294], the IC50 in assay [1] and in assay [2] was > 5 µM each time.

Turning to `O=C(O)Cn1cc(-c2cccc(CCc3ccccc3)c2)ccc1=O` [I-295], the concentration for half-maximal inhibition (IC50) in assay [1] and in assay [2] was > 5 µM in each case.

In the case of `O=C(O)Cn1cc(-c2cccc(/C=C/c3ccccc3)c2)ccc1=O` [I-296], the IC50 in assay [1] and in assay [2] was > 5 µM in each case.

`Cc1cc(C(=O)Nc2ccc(=O)n(CC(=O)O)c2)sc1-c1ccccc1` [I-297]: the IC50 was > 5 µM in assay [1] and 0.5 to 5 µM in assay [2].

Regarding `O=C(O)Cn1cc(NC(=O)c2cccc(-c3cccc(F)c3)c2)ccc1=O` [I-298], the IC50 in assay [1] and in assay [2] was > 5 µM throughout.

Consider `O=C(O)Cn1cc(CNC(=O)c2ccccc2)ccc1=O` [I-299], for which the IC50 in assay [1] and in assay [2] was > 5 µM throughout.

Take `O=C(O)Cn1cc(-c2cccc(OCc3ccccc3)c2)ccc1=O` [I-300]: the IC50 in assay [1] and in assay [2] was > 5 µM in each case.

`O=C(O)Cn1cc(-c2cncc(OCc3ccccc3)c2)ccc1=O` [I-301]: the IC50 in assay [1] and in assay [2] was > 5 µM each time.

For `NC(=O)Cc1cccc(-c2ccc(=O)n(CC(=O)O)c2)c1` [I-302], the IC50 in assay [1] and in assay [2] was > 5 µM in each case.

For the compound `O=C(O)Cn1cc(-c2cccc(CN3CCCCC3)c2)ccc1=O` [I-303], the IC50 in assay [1] and in assay [2] was > 5 µM each time.

`O=C(O)Cn1cc(-c2cccc(CN3CCOCC3)c2)ccc1=O` [I-304]: the 50% inhibitory concentration (IC50) in assay [1] and in assay [2] was > 5 µM each time.

On to `CN1CCN(Cc2cccc(-c3ccc(=O)n(CC(=O)O)c3)c2)CC1` [I-305], for which the IC50 in assay [1] and in assay [2] was > 5 µM in each case.

Take `O=C(O)Cn1cc(CC(=O)Nc2ccccc2)ccc1=O` [I-306]: the IC50 in assay [1] and in assay [2] was > 5 µM each time.

Consider `O=C(O)Cn1cc(N2Cc3ccccc3C2=O)ccc1=O` [I-307], for which the IC50 in assay [1] and in assay [2] was > 5 µM throughout.

On to `Cc1ccc(CC(C)(C)O)cc1-c1ccc(=O)n(CC(=O)O)c1` [I-308], for which the IC50 in assay [1] and in assay [2] was > 5 µM throughout.

Turning to `Cc1c(Cl)cccc1OCC(=O)Nc1ccc(=O)n(CC(=O)O)c1` [I-309], the IC50 was > 5 µM in assay [1] and 0.5 to 5 µM in assay [2].

In the case of `CC(Cc1ccccc1Cl)C(=O)Nc1ccc(=O)n(CC(=O)O)c1` (stereo not shown) [I-310], the IC50 in assay [1] and in assay [2] was > 5 µM throughout.

As to `O=C(O)Cn1cc(NC(=O)c2ccc(-c3ccccc3)c(F)c2)ccc1=O` [I-311], the IC50 was > 5 µM in assay [1] and 0.5 to 5 µM in assay [2].

Regarding `O=C(O)Cn1cc(-c2ccc(N3CCOCC3)cc2)ccc1=O` [I-312], the IC50 in assay [1] and in assay [2] was > 5 µM each time.

Consider `NC(=O)Cc1ccc(-c2ccc(=O)n(CC(=O)O)c2)cc1` [I-313], for which the IC50 in assay [1] and in assay [2] was > 5 µM in each case.

Consider `O=C(O)Cn1cc(-c2cccc(N3CCCCC3)c2)ccc1=O` [I-314], for which the IC50 in assay [1] and in assay [2] was > 5 µM in each case.

For the compound `O=C(O)Cn1cc(NC(=O)c2cccc(-c3ccccc3)c2)ccc1=O` [I-315], the IC50 in assay [1] was > 5 µM; in assay [2], 0.5 to 5 µM.

On to `Cc1cc(=O)n(CC(=O)O)cc1NC(=O)c1ccccc1` [I-316], for which the IC50 in assay [1] and in assay [2] was > 5 µM each time.

Consider `O=C(O)Cn1cc(NS(=O)(=O)c2ccccc2)ccc1=O` [I-317], for which the IC50 in assay [1] and in assay [2] was > 5 µM each time.
